Test results reported in ChEMBL document CHEMBL4414672, “Synthesis of certain benzothieno[3,2-d]pyrimidine derivatives as a selective SIRT2 inhibitors” (Eur J Med Chem, 2020).

Key:
Format in all cases: functional
K562 = experiment: Growth inhibition of human K562 cells at 10^-5 M incubated for 48 hrs by sulforhodamine B assay; settings: K562, 48 h, read-out: GI
EKVX = experiment: Growth inhibition of human EKVX cells at 10^-5 M incubated for 48 hrs by sulforhodamine B assay; settings: read-out: GI
HOP-62 = experiment: Growth inhibition of human HOP62 cells at 10^-5 M incubated for 48 hrs by sulforhodamine B assay; settings: HOP-62, 48 h, read-out: GI
HOP-92 = experiment: Growth inhibition of human HOP92 cells at 10^-5 M incubated for 48 hrs by sulforhodamine B assay; settings: HOP-92, 48 h, read-out: GI
NCI-H226 = experiment: Growth inhibition of human NCI-H226 cells at 10^-5 M incubated for 48 hrs by sulforhodamine B assay; settings: NCI-H226, 48 h, read-out: GI
COLO 205 = experiment: Growth inhibition of human COLO205 cells at 10^-5 M incubated for 48 hrs by sulforhodamine B assay; settings: COLO 205, 48 h, read-out: GI
HCC 2998 = experiment: Growth inhibition of human HCC2998 cells at 10^-5 M incubated for 48 hrs by sulforhodamine B assay; settings: HCC 2998, 48 h, read-out: GI
HT-29 = experiment: Growth inhibition of human HT-29 cells at 10^-5 M incubated for 48 hrs by sulforhodamine B assay; settings: HT-29, 48 h, read-out: GI
KM12 = experiment: Growth inhibition of human KM12 cells at 10^-5 M incubated for 48 hrs by sulforhodamine B assay; settings: KM12, 48 h, read-out: GI
SF-539 = experiment: Growth inhibition of human SF539 cells at 10^-5 M incubated for 48 hrs by sulforhodamine B assay; settings: SF-539, 48 h, read-out: GI
U-251 = experiment: Growth inhibition of human U251 cells at 10^-5 M incubated for 48 hrs by sulforhodamine B assay; settings: U-251, 48 h, read-out: GI
MDA-MB-435 = experiment: Growth inhibition of human MDA-MB-435 cells at 10^-5 M incubated for 48 hrs by sulforhodamine B assay; settings: MDA-MB-435, 48 h, read-out: GI
SK-MEL-2 = experiment: Growth inhibition of human SK-MEL-2 cells at 10^-5 M incubated for 48 hrs by sulforhodamine B assay; settings: SK-MEL-2, 48 h, read-out: GI
UACC-257 = experiment: Growth inhibition of human UACC257 cells at 10^-5 M incubated for 48 hrs by sulforhodamine B assay; settings: UACC-257, 48 h, read-out: GI
OVCAR-4 = experiment: Growth inhibition of human OVCAR4 cells at 10^-5 M incubated for 48 hrs by sulforhodamine B assay; settings: OVCAR-4, 48 h, read-out: GI
CAKI-1 = experiment: Growth inhibition of human Caki1 cells at 10^-5 M incubated for 48 hrs by sulforhodamine B assay; settings: CAKI-1, 48 h, read-out: GI
UO-31 = experiment: Growth inhibition of human UO31 cells at 10^-5 M incubated for 48 hrs by sulforhodamine B assay; settings: UO-31, 48 h, read-out: GI
PC-3 = experiment: Growth inhibition of human PC3 cells at 10^-5 M incubated for 48 hrs by sulforhodamine B assay; settings: PC-3, 48 h, read-out: GI
BT-549 = experiment: Growth inhibition of human BT549 cells at 10^-5 M incubated for 48 hrs by sulforhodamine B assay; settings: BT-549, 48 h, read-out: GI
MDA-MB-468 = experiment: Growth inhibition of human MDA-MB-468 cells at 10^-5 M incubated for 48 hrs by sulforhodamine B assay; settings: MDA-MB-468, 48 h, read-out: GI

Row | Compound | inhibition of growth at 10 µM (K562) [%] | inhibition of growth at 10 µM (EKVX) [%] | inhibition of growth at 10 µM (HOP-62) [%] | inhibition of growth at 10 µM (HOP-92) [%] | inhibition of growth at 10 µM (NCI-H226) [%] | inhibition of growth at 10 µM (COLO 205) [%] | inhibition of growth at 10 µM (HCC 2998) [%] | inhibition of growth at 10 µM (HT-29) [%] | inhibition of growth at 10 µM (KM12) [%] | inhibition of growth at 10 µM (SF-539) [%] | inhibition of growth at 10 µM (U-251) [%] | inhibition of growth at 10 µM (MDA-MB-435) [%] | inhibition of growth at 10 µM (SK-MEL-2) [%] | inhibition of growth at 10 µM (UACC-257) [%] | inhibition of growth at 10 µM (OVCAR-4) [%] | inhibition of growth at 10 µM (CAKI-1) [%] | inhibition of growth at 10 µM (UO-31) [%] | inhibition of growth at 10 µM (PC-3) [%] | inhibition of growth at 10 µM (BT-549) [%] | inhibition of growth at 10 µM (MDA-MB-468) [%]
1 | O=C1Nc2c(sc3ccc(Cl)cc23)C(c2cccc([N+](=O)[O-])c2)N1 (stereo not given) | 12.9 | 25.3 | 8.74 | 17.8 | 17.5 | -1.33 | -3.91 | -3 | 3.73 | 8.46 | 6.51 | -2.51 | 2.08 | 0.85 | 7.21 | 20.3 | 35.2 | 10.8 | 7.02 | 8.51
2 | O=C1Nc2c(sc3ccc(Cl)cc23)C(c2ccc3ccccc3c2)N1 (stereo not given) | 14 | 16.5 | 13.9 | 24.7 | 7.25 | -6.54 | -14.6 | -0.76 | -4.05 | 3.67 | 1.75 | -8.72 | 0.12 | 14.5 | 3.19 | 23.3 | 37.4 | 7.25 | -1.2 | -13.7
3 | O=C1Nc2c(sc3ccc(Cl)cc23)C(c2cccc(Br)c2)N1 (stereo not given) | 6.28 | 7.46 | 22.2 | 0.42 | 3.66 | -4.67 | -23.5 | -7.8 | -0.31 | -0.96 | -3.91 | -5.37 | -9.69 | -7.95 | -6.24 | 17.7 | -23.4 | 0.46 | -17.5 | -26.3
4 | O=[N+]([O-])c1cccc(C2c3sc4ccc(Cl)cc4c3N=C3NN=NN32)c1 (stereo not given) | -7.43 | 8.75 | 0.43 | 12.8 | 11.5 | -7.9 | 1.22 | -2.76 | -1.99 | -8.51 | 3.96 | 2.65 | -23 | 3.87 | -6.3 | -15.7 | 14.5 | -11.3 | 9.57 | -8.85
5 | S=C1Nc2c(sc3ccc(Cl)cc23)C(c2cccc(Br)c2)N1 (stereo not given) | 1.5 | 12.4 | 15.5 | -3.61 | 15.2 | -2.63 | -27.2 | 0.35 | -2.38 | 1 | -7.09 | -2.42 | -6.36 | -8.63 | 8.7 | 19.2 | -18.3 | 6.34 | -10.2 | -5.67
